# According to patent US9278922B2 (ABBVIE INC., priority 2009, dated 2016):
# Tested on: HCV 1b-Con-1 replicon
# Assay: HCV 1b-Con-1 replicon assay (luciferase reporter gene, HuH-7 cells)
# Format: cell-based, Hepatitis C virus (HCV) genotype 1b-Con1
# Details: Hepatitis C virus, Huh-7, luciferase reporter gene activity in the replicon, in the presence of 5% FBS
row,Structure (SMILES),EC50
1,"CC(C)(C)[C@H](Nc1ncccn1)C(=O)N1CCC[C@H]1C(=O)Nc1ccc(CN(Cc2ccc(NC(=O)[C@@H]3CCCN3C(=O)[C@@H](Nc3ncccn3)C(C)(C)C)cc2)c2ccccc2)cc1 [Example 111, (2S,2′S)-N,N′-[(phenylimino)bis(methanediylbenzene-4,1-diyl)]bis{1-[(2S)-3,3-dimethyl-2-(pyrimidin-2-ylamino)butanoyl]pyrrolidine-2-carboxamide}]",1 to 10 nM
2,"C=CC[C@H](NC(=O)OC)C(=O)N1CCC[C@H]1C(=O)Nc1ccc(CN(Cc2ccc(NC(=O)[C@@H]3CCCN3C(=O)[C@H](CC=C)NC(=O)OC)cc2)c2ccccc2)cc1 [Example 37, dimethyl [(phenylimino)bis{methanediylbenzene-4,1-diylcarbamoyl(2S)pyrrolidine-2,1-diyl[(4S)-5-oxopent-1-ene-5,4-diyl]}]biscarbamate]",1 to 10 nM
3,"CC(C)[C@@H](C(=O)N1CCC[C@H]1C(=O)Nc1ccc(CN(Cc2ccc(NC(=O)[C@@H]3CCCN3C(=O)[C@H](C(C)C)N3CCCNC3=O)cc2)c2ccccc2)cc1)N1CCCNC1=O [Example 36, (2S,2′S)-N,N′-[(phenylimino)bis(methanediylbenzene-4,1-diyl)]bis {1-[(2S)-3-methyl-2-(2-oxotetrahydropyrimidin-1(2H)-yl)butanoyl]pyrrolidine-2-carboxamide}]",1 to 10 nM
4,"O=C(Nc1ccc(CN(Cc2ccc(NC(=O)[C@@H]3CCCN3C(=O)C(c3ccccc3)C3(O)CCCC3)cc2)c2ccc(F)cc2)cc1)[C@@H]1CCCN1C(=O)C(c1ccccc1)C1(O)CCCC1 (stereo partly drawn) [Example 106, (2S ,2′S)-N,N′-{[(4-fluorophenyl)imino]bis(methanediylbenzene-4,1-diyl)}bis{1-[(1-hydroxycyclopentyl)(phenyl)acetyl]pyrrolidine-2-carboxamide}]",< 1 nM
5,"COC(=O)N[C@H](C(=O)N1CCC[C@H]1C(=O)Nc1ccc(CN(Cc2ccc(NC(=O)[C@@H]3CCCN3C(=O)[C@@H](NC(=O)OC)[C@H]3CCOC3)cc2)c2ccc(F)cc2)cc1)[C@H]1CCOC1 [Example 86, dimethyl {[(4-fluorophenyl)imino]bis[methanediylbenzene-4,1-diylcarbamoyl(2 S)pyrrolidine-2,1-diyl{(1S)-2-oxo-1-[(3R)-tetrahydrofuran-3-yl]ethane-2,1-diyl}]}biscarbamate]",< 1 nM
6,"COC(=O)N[C@H](C(=O)N1CCC[C@H]1C(=O)Nc1ccc(CN(Cc2ccc(NC(=O)[C@@H]3CCCN3C(=O)[C@@H](NC(=O)OC)C(C)(C)C)cc2)c2ccon2)cc1)C(C)(C)C [Example 33, dimethyl[(isoxazol-3-ylimino)bis{methanediylbenzene-4,1-diylcarbamoyl(2S)pyrrolidine-2,1-diyl[(2S)-3,3-dimethyl-1-oxobutane-1,2-diyl]}]biscarbamate]",1 to 10 nM
7,"COCC(=O)N[C@H](C(=O)N1CCC[C@H]1C(=O)Nc1ccc(CN(Cc2ccc(NC(=O)[C@@H]3CCCN3C(=O)[C@@H](NC(=O)COC)C(C)(C)C)cc2)c2ccccc2)cc1)C(C)(C)C [Example 40, (2S,2′S)-N,N′-[(phenylimino)bis(methanediylbenzene-4,1-diyl)]bis(1-{(2S)-2-[(methoxyacetyl)amino]-3,3-dimethylbutanoyl}pyrrolidine-2-carboxamide)]",10 to 100 nM
8,"COC(=O)N[C@H](C(=O)N1CCC[C@H]1c1nc2cc(CN(Cc3ccc4[nH]c([C@@H]5CCCN5C(=O)[C@@H](NC(=O)OC)[C@H]5CCOC5)nc4c3)c3ccccc3)ccc2[nH]1)[C@H]1CCOC1 [Example 78, dimethyl {(phenylimino)bis[methanediyl-1H-benzimidazole-5,2-diyl(2S)pyrrolidine-2,1-diyl{(1S)-2-oxo-1-[(3R)-tetrahydrofuran-3-yl]ethane-2,1-diyl}]}biscarbamate]",< 1 nM
9,"CN(C)[C@@H](C(=O)N1CCC[C@H]1c1nc2cc(CN(Cc3ccc4[nH]c([C@@H]5CCCN5C(=O)[C@@H](c5ccccc5)N(C)C)nc4c3)c3ccccc3)ccc2[nH]1)c1ccccc1 [Example 18, (2R,2′R)-1,1′-((2S,2′S)-2,2′-(5,5′-(phenylazanediyl)bis(methylene)bis(1H-benzo[d]imidazole-5,2-diyl))bis(pyrrolidine-2,1-diyl))bis(2-(dimethylamino)-2-phenylethanone)]",< 1 nM
10,"CCN(CC)[C@@H](C(=O)N1CCC[C@H]1C(=O)Nc1ccc(CN(Cc2ccc(NC(=O)[C@@H]3CCCN3C(=O)[C@@H](NC(=O)OC)[C@@H](C)OC)cc2)c2ccc(F)cc2)cc1)c1ccccc1 [Example 84, N-(methoxycarbonyl)-O-methyl-L-threonyl-N-[4-({[4-({1-[(2R)-2-(diethylamino)-2-phenylacetyl]-L-prolyl}amino)benzyl](4-fluorophenyl)amino}methyl)phenyl]-L-prolinamide]",< 1 nM
11,"COC(=O)N[C@@H](C)C(=O)N1CCC[C@H]1C(=O)Nc1ccc(CN(Cc2ccc(NC(=O)[C@@H]3CCCN3C(=O)[C@H](C)NC(=O)OC)cc2)c2ccccc2)cc1 [Example 8, Dimethyl (2S,2′S)-1,1′-((2S,2′S)-2,2′-(4,4′-(phenylazanediyl)bis(methylene)bis(4,1-phenylene)bis(azanediyl))bis(oxomethylene)bis(pyrrolidine-2,1-diyl))bis(1-oxopropane-2,1-diyl)dicarbamate]",1 to 10 nM
12,"COC(=O)N[C@H](C(=O)N1CCC[C@H]1C(=O)Nc1cc(CN(Cc2ccc(OC)c(NC(=O)[C@@H]3CCCN3C(=O)[C@@H](NC(=O)OC)C(C)(C)C)c2)c2ccc(F)cc2)ccc1OC)C(C)(C)C [Example 147, dimethyl ([(4-fluorophenyl)imino]bis{methanediyl(6-methoxybenzene-3,1-diyl)carbamoyl(2S)pyrrolidine-2,1-diyl[(2S)-3,3-dimethyl-1-oxobutane-1,2-diyl]})biscarbamate]",100 to 250 nM
13,COC(=O)N[C@H](C(=O)N1C[C@H](O)C[C@H]1C(=O)Nc1ccc(CN(Cc2ccc(NC(=O)[C@@H]3C[C@@H](O)CN3C(=O)[C@@H](NC(=O)OC)C(C)(C)C)cc2)c2ccccc2)cc1)C(C)(C)C [Example 48],1 to 10 nM
14,"CCN(CC)[C@@H](C(=O)N1CCC[C@H]1C(=O)Nc1ccc(CN(Cc2ccc(NC(=O)[C@@H]3CCCN3C(=O)[C@H](NC(=O)OC)c3ccccc3)cc2)c2ccccc2)cc1)c1ccccc1 [Example 75, methyl [(1R)-2-{(2S)-2-[(4-{[{-4-[({(2S)-1-[(2R)-2-(diethylamino)-2-phenylacetyl]pyrrolidin-2-yl}carbonyl)amino]benzyl}(phenyl)amino]methyl}phenyl)carbamoyl]pyrrolidin-1-yl}-2-oxo-1-phenylethyl]carbamate]",< 1 nM
15,"CCN(C(C)=O)[C@@H](C(=O)N1CCC[C@H]1C(=O)Nc1ccc(CN(Cc2ccc(NC(=O)[C@@H]3CCCN3C(=O)[C@@H](c3ccccc3)N(CC)C(C)=O)cc2)c2ccc(F)cc2)cc1)c1ccccc1 [Example 122, (2S,2′S)-N,N′-{[(4-fluorophenyl)imino]bis(methanediylbenzene-4,1-diyl)}bis(1-{(2R)-2-[acetyl(ethyl)amino]-2-phenylacetyl}pyrrolidine-2-carboxamide)]",10 to 100 nM
16,"COC(=O)N[C@@H]1CCC[C@H]2CC[C@@H](C(=O)Nc3ccc(CN(Cc4ccc(NC(=O)[C@@H]5CC[C@@H]6CCC[C@@H](NC(=O)OC)C(=O)N65)cc4)c4ccccc4)cc3)N2C1=O [Example 63, dimethyl [(phenylimino)bis{methanediylbenzene-4,1-diylcarbamoyl[(3S,6R,9aS)-5-oxooctahydro-1H-pyrrolo[1,2-a]azepine-3,6-diyl]}]biscarbamate]",10 to 100 nM
17,"COC(=O)N[C@@H](CCc1ccccc1)C(=O)N1CCC[C@H]1C(=O)Nc1ccc(CN(Cc2ccc(NC(=O)[C@@H]3CCCN3C(=O)[C@H](CCc3ccccc3)NC(=O)OC)cc2)c2ccccc2)cc1 [Example 91, dimethyl[(phenylimino)bis{methanediylbenzene-4,1-diylcarbamoyl(2S)pyrrolidine-2,1-diyl[(2S)-1-oxo-4-phenylbutane-1,2-diyl]}]biscarbamate]",1 to 10 nM
18,"O=C(Nc1ccc(CN(Cc2ccc(NC(=O)[C@@H]3CCCN3C(=O)C(c3ccccc3)N3CC[C@H](F)C3)cc2)c2ccc(F)cc2)cc1)[C@@H]1CCCN1C(=O)C(c1ccccc1)N1CC[C@H](F)C1 (single isomer, unassigned) [Example 120]",< 1 nM
19,"COC(=O)N[C@H](C(=O)N1CCC[C@H]1C(=O)Nc1ccc(CN(Cc2ccc(NC(=O)[C@@H]3CCCN3C(=O)[C@H](NC(=O)OC)c3ccccc3)cc2)c2ccccc2)cc1)C(C)C [Example 70, N-(methoxycarbonyl)-L-valyl-N-(4-{[{4-[(1-{(2R)-2-[(methoxycarbonyl)amino]-2-phenylacetyl}-L-prolyl)amino]benzyl}(phenyl)amino]methyl}phenyl)-L-prolinamide]",< 1 nM
20,"CC[C@H](NC(=O)OC)C(=O)N1CCC[C@H]1C(=O)Nc1ccc(CN(Cc2ccc(NC(=O)[C@@H]3CCCN3C(=O)[C@H](CC)NC(=O)OC)cc2)c2ccc(F)cc2)cc1 [Example 112, dimethyl ([(4-fluorophenyl)imino]bis{methanediylbenzene-4,1-diylcarbamoyl(25)pyrrolidine-2,1-diyl[(2S)-1-oxobutane-1,2-diyl]})biscarbamate]",1 to 10 nM
21,"COC(=O)N[C@@H](CCO)C(=O)N1CCC[C@H]1C(=O)Nc1ccc(CN(Cc2ccc(NC(=O)[C@@H]3CCCN3C(=O)[C@H](CCO)NC(=O)OC)cc2)c2ccc(F)cc2)cc1 [Example 134, dimethyl ([(4-fluorophenyl)imino]bis{methanediylbenzene-4,1-diylcarbamoyl(2S)pyrrolidine-2,1-diyl[(2S)-4-hydroxy-1-oxobutane-1,2-diyl]})biscarbamate]",1 to 10 nM
22,COC(=O)N[C@H](C(=O)N1CC[C@H](O)[C@H]1C(=O)Nc1ccc(CN(Cc2ccc(NC(=O)[C@@H]3[C@@H](O)CCN3C(=O)[C@@H](NC(=O)OC)C(C)(C)C)cc2)c2ccc(F)cc2)cc1)C(C)(C)C [Example 141],10 to 100 nM
23,COC(=O)N[C@H](C(=O)N1CC[C@H](C)[C@H]1C(=O)Nc1ccc(CN(Cc2ccc(NC(=O)[C@@H]3[C@@H](C)CCN3C(=O)[C@@H](NC(=O)OC)C(C)(C)C)cc2)c2ccc(F)cc2)cc1)C(C)(C)C [Example 145],< 1 nM
